Patent US6632794B1, “Insulin-like growth factor agonist molecules” (Genentech, Inc., priority 1997, dated 2003)
Like-named read-outs stand apart in the source and are kept apart here. Starred links: 1 amine or outer side, 2 acyl side, 3 side chain; linkers in the order of their positions; H or OH if unused. Positions of bridges follow the written chain, without caps; N, C: chain ends. Residues, ends and D or L forms follow the SMILES beside them. No end group written: not given here. Suc = O=C(CCC(=O)[*:2])[*:1]

Molecular target: IGFBP-3 (Homo sapiens, UniProt P17936)
Sequence (P17936 28-291): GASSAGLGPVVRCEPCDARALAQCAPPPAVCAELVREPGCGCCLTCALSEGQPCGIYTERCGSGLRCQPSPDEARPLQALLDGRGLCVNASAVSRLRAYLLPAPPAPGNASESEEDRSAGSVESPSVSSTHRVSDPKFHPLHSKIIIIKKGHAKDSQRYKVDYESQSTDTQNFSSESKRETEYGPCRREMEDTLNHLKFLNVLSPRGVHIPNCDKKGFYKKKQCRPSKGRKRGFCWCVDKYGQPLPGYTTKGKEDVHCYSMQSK
Assay: BIAcore competition assay, IGFBP-3 binding to immobilized IGF-I
Conditions: for IGF-I Inhibition IC50 (mut)/IC50 (wt): bp3-01-ox variants by BIAcore, wt = bp3-01-ox
Description: A. BIAcore™ Competition Assay (for IGFBP-3 Binders)
IGF-I was immobilized on a dextran chip for inhibition assays using a BIAcore™ 2000 surface-plasmon-resonance device (BIAcore, Inc., Piscataway, N.J.) to measure free binding protein. […] Serial dilutions of peptide were mixed with a constant concentration (40 nM) of IGFBP-3. After incubation for >1 hour at room temperature, an aliquot of 20 μL was injected at a flow rate of 20 μL/min over the IGF-I chip. Following the injection, a response reading was taken to measure the relative amount of IGFBP-3 bound to the IGF-I.

[1] = 40 nM IGFBP-3, 400 to 800 RU immobilized IGF-I, read-out: BIAcore Assay IC50, inhibition of IGF-I binding to IGFBP-3
[2] = bp3-01-ox variants by BIAcore competition assay, read-out: IGF-I Inhibition IC50

Compound | IC50 [1] [µM] | IC50 [2] [µM] | IGF-I Inhibition IC50 (mut)/IC50 (wt) | other results
CC[C@H](C)[C@@H]1NC(=O)[C@H](C(C)C)NC(=O)[C@H](Cc2ccc(O)cc2)NC(=O)CNC(=O)[C@@H]2CCCN2C(=O)CNC(=O)[C@H](CCC(=O)O)NC(=O)[C@H](Cc2ccccc2)NC(=O)[C@@H](NC(=O)[C@H](CCC(=O)O)NC(=O)[C@H](CO)NC(=O)[C@H](CCC(=O)O)NC(=O)[C@@H](N)CCC(=O)O)CSSC[C@@H](C(=O)NCC(=O)N[C@@H](CC(C)C)C(=O)N[C@H](C(=O)NCC(=O)O)C(C)C)NC1=O [BP3-4B3.3] (H-EESECFEGPGYVICGLVG-OH; disulfide 5-14; N-terminus and C-terminus assumed) | 80 |  |  | 
CC[C@H](C)[C@@H]1NC(=O)[C@@H](NC(=O)[C@@H](NC(=O)[C@H](Cc2c[nH]c3ccccc23)NC(=O)CNC(=O)[C@H](CC(=O)O)NC(=O)[C@H](CC(C)C)NC(=O)[C@@H](N)CCC(=O)O)C(C)C)CSSC[C@@H](C(=O)N[C@@H](Cc2ccc(O)cc2)C(=O)N[C@@H](CC(C)C)C(=O)N[C@@H](C)C(=O)N[C@@H](CCC(=O)O)C(=O)NCC(N)=O)NC(=O)[C@H](CC(C)C)NC(=O)[C@H](CC(N)=O)NC(=O)[C@H](CCC(N)=O)NC(=O)[C@H](CCC(=O)O)NC(=O)CNC(=O)[C@H](C(C)C)NC(=O)[C@H](CCCCN)NC1=O [BP3-23] (H-ELDGWVCIKVGEQNLCYLAEG-NH2; disulfide 7-16; N-terminus assumed) | 220 |  |  | 
CC(C)C[C@H](NC(=O)[C@@H](NC(=O)[C@H](Cc1ccc(O)cc1)NC(=O)[C@@H]1CSSC[C@H](NC(=O)[C@@H](NC(=O)[C@@H](NC(=O)[C@H](CCCCN)NC(=O)[C@H](Cc2ccccc2)NC(=O)[C@@H](N)Cc2c[nH]c3ccccc23)[C@@H](C)O)C(C)C)C(=O)N[C@@H](Cc2ccc(O)cc2)C(=O)N[C@@H](CCC(=O)O)C(=O)N[C@@H](Cc2c[nH]c3ccccc23)C(=O)N[C@@H](CCC(=O)O)C(=O)N[C@@H](CC(=O)O)C(=O)N[C@@H](CCC(=O)O)C(=O)N[C@@H](C(C)C)C(=O)N[C@@H](CCC(N)=O)C(=O)N1)[C@@H](C)O)C(=O)N[C@@H](CCC(=O)O)C(=O)N[C@@H](CCC(=O)O)C(=O)NCC(N)=O [BP3-24] (H-WFKTVCYEWEDEVQCYTLEEG-NH2; disulfide 6-15) | 100 to 300 |  |  | 
CC[C@H](C)[C@H](NC(=O)[C@H](Cc1ccc(O)cc1)NC(=O)[C@H](C)NC(=O)CNC(=O)[C@@H](NC(=O)[C@@H](N)CCCNC(=N)N)C(C)C)C(=O)N[C@@H](CO)C(=O)N[C@H]1CSSC[C@@H](C(=O)N[C@@H](Cc2c[nH]c3ccccc23)C(=O)N[C@H](C(=O)N[C@@H](CCC(=O)O)C(=O)N[C@@H](CC(=O)O)C(=O)N[C@@H](CC(C)C)C(=O)N[C@@H](CC(C)C)C(=O)N[C@@H](CC(=O)O)C(=O)NCC(N)=O)C(C)C)NC(=O)[C@H](CCC(=O)O)NC(=O)[C@H]([C@@H](C)O)NC(=O)[C@H](CCC(=O)O)NC(=O)[C@H](CO)NC1=O [BP3-25] (H-RVGAYISCSETECWVEDLLDG-NH2; disulfide 8-13) | > 1000 |  |  | 
CSCC[C@H](NC(=O)[C@@H]1CSSC[C@H](NC(=O)[C@H](CC(=O)O)NC(=O)[C@@H](NC(=O)CNC(=O)[C@@H](N)[C@@H](C)O)C(C)C)C(=O)N[C@@H](CCC(N)=O)C(=O)N[C@H]2CSSC[C@H](NC(=O)[C@H](Cc3c[nH]cn3)NC(=O)[C@H](C(C)C)NC(=O)[C@@H]3CCCN3C(=O)CNC2=O)C(=O)N[C@@H](C(C)C)C(=O)N1)C(=O)N[C@@H](CC(=O)O)C(=O)N[C@@H](Cc1c[nH]c2ccccc12)C(=O)N[C@@H](C)C(=O)O [BP06, TGVDCQC*GPVHC*VCMDWA] (H-TGVDCQCGPVHCVCMDWA-OH; disulfide 5-14, 7-12; N-terminus and C-terminus assumed) |  |  |  | IC50: 5 µM
CSCC[C@@H]1NC(=O)[C@H](Cc2ccc(O)cc2)NC(=O)[C@@H]2CSSC[C@H](NC(=O)[C@H](CC(C)C)NC(=O)[C@@H]3CCCN3C1=O)C(=O)N[C@@H](CC(C)C)C(=O)N[C@H](C(=O)N[C@@H](Cc1ccc(O)cc1)C(=O)N[C@@H](CC(=O)O)C(=O)N[C@@H](CO)C(=O)N[C@@H](CC(=O)O)C(=O)O)CSSC[C@H](NC(=O)[C@H](CC(N)=O)NC(=O)[C@H](C)NC(=O)[C@@H](NC(=O)[C@@H](N)[C@@H](C)O)C(C)C)C(=O)N[C@@H](CC(=O)O)C(=O)N2 [BP08, TVANCDC*YMPLC*LCYDSD] (H-TVANCDCYMPLCLCYDSD-OH; disulfide 5-14, 7-12; N-terminus and C-terminus assumed) |  |  |  | IC50: 15 µM
CC[C@H](C)[C@@H]1NC(=O)[C@H](Cc2ccc(O)cc2)NC(=O)CNC(=O)[C@H](CCC(N)=O)NC(=O)[C@H](CC(=O)O)NC(=O)[C@H](Cc2c[nH]cn2)NC(=O)[C@H](CCCNC(=N)N)NC(=O)[C@H](CC(=O)O)NC(=O)[C@H](Cc2c[nH]c3ccccc23)NC(=O)[C@@H](N)CSSC[C@@H](C(=O)N[C@H](C(=O)N[C@H](C(=O)N[C@@H](CC(=O)O)C(=O)N[C@@H](CO)C(=O)O)[C@@H](C)O)[C@@H](C)O)NC1=O [BP13] (H-CWDRHDQGYICTTDS-OH; disulfide 1-11) | > 1000 |  |  | 
CC(C)C[C@@H]1NC(=O)[C@H](Cc2ccc(O)cc2)NC(=O)[C@H](Cc2c[nH]c3ccccc23)NC(=O)[C@H](CCC(=O)O)NC(=O)[C@H](C)NC(=O)[C@H](C(C)C)NC(=O)[C@@H]2CCCN2C(=O)[C@H](Cc2c[nH]c3ccccc23)NC(=O)[C@@H](NC(=O)[C@@H](NC(=O)[C@@H](N)CCC(=O)O)C(C)C)CSSC[C@@H](C(=O)N[C@@H](CC(N)=O)C(=O)O)NC1=O [bp3-27] (H-EVCWPVAEWYLCN-OH; disulfide 3-12; N-terminus and C-terminus assumed) |  | 2.8 | 1.4 | 
CC(C)C[C@@H]1NC(=O)[C@H](Cc2ccc(O)cc2)NC(=O)[C@H](Cc2c[nH]c3ccccc23)NC(=O)[C@H](CCC(=O)O)NC(=O)[C@H](C)NC(=O)[C@H](C(C)C)NC(=O)[C@@H]2CCCN2C(=O)[C@H](Cc2c[nH]c3ccccc23)NC(=O)[C@@H](NC(=O)[C@@H](NC(=O)[C@H](CCC(=O)O)NC(=O)[C@@H](N)CCC(=O)O)C(C)C)CSSC[C@@H](C(=O)N[C@@H](CC(N)=O)C(=O)O)NC1=O [bp3-28] (H-EEVCWPVAEWYLCN-OH; disulfide 4-13 (inferred); N-terminus and C-terminus assumed) |  | 5.4 | 2.7 | 
CC[C@H](C)[C@H](NC(=O)CCC(=O)O)C(=O)N1CCC[C@H]1C(=O)N[C@H](C(=O)N[C@@H](CO)C(=O)N1CCC[C@H]1C(=O)N[C@@H](CC(=O)O)C(=O)N[C@@H](Cc1c[nH]c2ccccc12)C(=O)N[C@@H](Cc1ccccc1)C(=O)N[C@H](C(=O)N[C@@H](CS)C(=O)N[C@@H](CCC(N)=O)C(N)=O)C(C)C)C(C)C [bp3-108] (Suc-IPVSPDWFVCQ-NH2) |  |  |  | IC50 (BIAcore competition, read-out: IC50, inhibition of IGFBP-3 binding to IGF-I): 20 µM
WPVAEWYLCN [bp3-24] |  | > 1000 |  | 

The next lines start with results.

IC50 [1] [µM] | IC50 [2] [µM] | IGF-I Inhibition IC50 (mut)/IC50 (wt) | Compound | other results
 | 5.6 | 2.8 | CC(C)C[C@@H]1NC(=O)[C@H](Cc2ccc(O)cc2)NC(=O)[C@H](Cc2c[nH]c3ccccc23)NC(=O)[C@H](CCC(=O)O)NC(=O)[C@H](C)NC(=O)[C@H](C(C)C)NC(=O)[C@@H]2CCCN2C(=O)[C@H](Cc2c[nH]c3ccccc23)NC(=O)[C@@H](NC(=O)[C@@H](NC(=O)[C@H](CCC(=O)O)NC(=O)[C@H](CCC(=O)O)NC(=O)[C@H](CO)NC(=O)[C@H](C)N)C(C)C)CSSC[C@@H](C(=O)N[C@@H](CC(N)=O)C(=O)O)NC1=O [bp3-30] (H-ASEEVCWPVAEWYLCN-OH; disulfide 6-15; N-terminus and C-terminus assumed) | 
 | 0.66 | 0.33 | CC(C)C[C@@H]1NC(=O)[C@H](Cc2ccc(O)cc2)NC(=O)[C@H](Cc2c[nH]c3ccccc23)NC(=O)[C@H](CCC(=O)O)NC(=O)[C@H](C)NC(=O)[C@H](C(C)C)NC(=O)[C@@H]2CCCN2C(=O)[C@H](Cc2c[nH]c3ccccc23)NC(=O)[C@@H](NC(=O)[C@@H](NC(=O)[C@H](CCC(=O)O)NC(=O)[C@H](CCC(=O)O)NC(=O)[C@@H](N)CO)C(C)C)CSSC[C@@H](C(=O)N[C@@H](CC(N)=O)C(N)=O)NC1=O [bp3-39] (H-SEEVCWPVAEWYLCN-NH2; disulfide 5-14 (inferred); N-terminus assumed) | 
 | 0.66 | 0.33 | CC(=O)N[C@@H](CO)C(=O)N[C@@H](CCC(=O)O)C(=O)N[C@@H](CCC(=O)O)C(=O)N[C@H](C(=O)N[C@H]1CSSC[C@@H](C(=O)N[C@@H](CC(N)=O)C(N)=O)NC(=O)[C@H](CC(C)C)NC(=O)[C@H](Cc2ccc(O)cc2)NC(=O)[C@H](Cc2c[nH]c3ccccc23)NC(=O)[C@H](CCC(=O)O)NC(=O)[C@H](C)NC(=O)[C@H](C(C)C)NC(=O)[C@@H]2CCCN2C(=O)[C@H](Cc2c[nH]c3ccccc23)NC1=O)C(C)C [bp3-40] (Ac-SEEVCWPVAEWYLCN-NH2; disulfide 5-14 (inferred)) | 
 | 4 | 2.0 | CC(C)C[C@@H]1NC(=O)[C@H](Cc2ccc(O)cc2)NC(=O)[C@H](Cc2c[nH]c3ccccc23)NC(=O)[C@H](CCC(=O)O)NC(=O)[C@H](C)NC(=O)[C@H](C(C)C)NC(=O)[C@@H]2CCCN2C(=O)[C@H](Cc2c[nH]c3ccccc23)NC(=O)[C@@H](NC(=O)[C@@H](NC(=O)[C@H](CCC(=O)O)NC(=O)[C@@H]2CCCN2C(=O)CN)[C@@H](C)O)CSSC[C@@H](C(=O)N[C@@H](CC(N)=O)C(=O)O)NC1=O [bp3-41] (H-GPETCWPVAEWYLCN-OH; disulfide 5-14; N-terminus and C-terminus assumed) | 
